Results taken from patent publication US10782295B2, “Cysteine-reactive ligand discovery in proteomes” (THE SCRIPPS RESEARCH INSTITUTE, priority 2013, dated 2020).

Tests used:
[1] = target: T1, WT-ZAK (Homo sapiens, UniProt Q9NYL2); assay: gel-based ABPP with IA-rhodamine probe; assay type: binding; conditions: 10, 50 and 100 μM, 30 min; HEK-293T lysate
T1 construct: Full-length cDNA encoding human ZAK-13 (BC001401); expressed in transfected cells
Description: The gel signals for IA-labeling of WT-ZAK were blocked by pretreatment with HNE over a concentration range that closely matched the HNE-sensitivity profile observed for C22 in competitive isoTOP-ABPP experiments (FIG. 4b, compare to FIG. 3a). […] Considering further that C22 is predicted to reside adjacent to the ATP-binding loop of ZAK, we postulated that the HNE-induced loss of kinase activity might be due to blockade of ATP-binding.
Full-length cDNA encoding human ZAK-13 (BC001401) in pOTB7 was purchased from Open BioSystems and subcloned into pFLAG-CMV-6c (Sigma-Aldrich). ZAK-C22A and ZAK-K45M mutants were generated by QuikChange site-directed mutagenesis using the primer 5′-[…]-3′ (SEQ ID NO:1) and 5′-[…]-3′ (SEQ ID NO:2) and their complements. Wild-type and mutant ZAK were cloned into a modified pCLNCX retroviral vector. Retrovirus was prepared by taking 3.0 μg of each of pCLNCX and pCL-Ampho vectors and […], of FuGENE IID reagent (Roche) to transfect 60% confluent HEK-293T cells. […]
FLAG-tagged wild-type and C22A mutant ZAK were immunoprecipitated from HEK-293T cells ([…]). […] Gel samples were separated by SDS-PAGE (50 μL of sample/lane) and visualized in-gel using a Hitachi FMBio II flatbed laser-induced fluorescence scanner (MiraiBio, Alameda, Calif.). […]

[2] = system: JNK pathway activation; assay: Western blotting of phospho-JNK in mock-transfected HEK-293T cells; assay type: cell-based, human; conditions: 50 or 100 μM, 60 min
Description: We next set out to assess the functional effects of HNE modification of ZAK in human cells. HEK-293T cells were stably transfected with cDNAs for WT-ZAK, C22A-ZAK, or K45M-ZAK and the activation state of their MAPK signaling pathways was monitored by western blotting with anti-phosphoprotein antibodies. […] We next treated cells with H2O2 (1 mM, 30 min) to induce oxidative stress, a process that is known to activate the JNK pathway^41,42. H2O2 treatment stimulated JNK activity in both WT- and C22A-ZAK-transfected cells (but not K45M-ZAK-transfected cells), with WT-ZAK cells showing the greater level of activation (FIG. 5b,c). […] We interpret these findings to indicate the existence of both ZAK-dependent and ZAK-independent pathways for HNE modulation of JNK activation (FIG. 5d). By modifying C22 on ZAK, HNE blocks the contribution that this kinase makes to the activation of the JNK pathway. […]
Mouse and rabbit monoclonal antibodies against phospho-ERK 1/2 (Thr202/Tyr204), phosphor-SAPK/JNK (Thr183/[…]), phosphor-p38 MAPK (Thr180/[…]) and total ERK 1/2, SAPK/JNK and p38 MAPK were purchased from Cell Signaling Technology. […] Protein band intensities were quantified by ImageJ8 and ratios of phosphor-MAPK over total MAPK were computed. […]

T1 sequence (Q9NYL2 1-455 isoform Q9NYL2-2): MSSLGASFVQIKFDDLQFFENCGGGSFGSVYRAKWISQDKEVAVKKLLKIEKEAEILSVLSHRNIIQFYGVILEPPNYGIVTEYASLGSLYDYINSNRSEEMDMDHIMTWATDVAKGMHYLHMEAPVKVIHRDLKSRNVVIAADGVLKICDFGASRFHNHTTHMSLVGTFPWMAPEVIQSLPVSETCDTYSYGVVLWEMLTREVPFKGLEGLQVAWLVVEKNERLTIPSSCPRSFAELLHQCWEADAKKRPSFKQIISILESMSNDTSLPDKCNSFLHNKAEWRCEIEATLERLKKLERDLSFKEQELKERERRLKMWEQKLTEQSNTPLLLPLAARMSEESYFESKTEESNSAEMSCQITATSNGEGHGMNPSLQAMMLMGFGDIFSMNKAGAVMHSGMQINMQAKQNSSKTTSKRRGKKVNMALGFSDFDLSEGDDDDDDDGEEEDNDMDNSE

## CCCCCC(O)/C=C/C=O (centres unmarked) [4-HNE, 4-Hydroxynonenal]
[1]
  gel signals for IA-labeling of WT-ZAK after pretreatment: blocked
[2]
  JNK activation by HNE alone, mock-transfected cells: activated JNK
